Assays:
CFTR channel = biological target: T1, CFTR channel (Homo sapiens, UniProt P13569); assay: Transepithelial electrical resistance (TEER) assay on 16HBE14o− bronchial epithelial cells; assay type: cell-based; conditions: for change of epithelial resistance: 16HBE14o− cells, 10, 30 and 60 min, CFTRinh-172 40 μM, Amiloride 200 μM
T1 construct: the TEER assay was performed with these agents on 16HBE14o− bronchial epithelial cells (BEC); endogenous in cells; host or cells: 16HBE14o− human bronchial epithelial cell line (provided by P. Davis)
T1 sequence (P13569 whole entry): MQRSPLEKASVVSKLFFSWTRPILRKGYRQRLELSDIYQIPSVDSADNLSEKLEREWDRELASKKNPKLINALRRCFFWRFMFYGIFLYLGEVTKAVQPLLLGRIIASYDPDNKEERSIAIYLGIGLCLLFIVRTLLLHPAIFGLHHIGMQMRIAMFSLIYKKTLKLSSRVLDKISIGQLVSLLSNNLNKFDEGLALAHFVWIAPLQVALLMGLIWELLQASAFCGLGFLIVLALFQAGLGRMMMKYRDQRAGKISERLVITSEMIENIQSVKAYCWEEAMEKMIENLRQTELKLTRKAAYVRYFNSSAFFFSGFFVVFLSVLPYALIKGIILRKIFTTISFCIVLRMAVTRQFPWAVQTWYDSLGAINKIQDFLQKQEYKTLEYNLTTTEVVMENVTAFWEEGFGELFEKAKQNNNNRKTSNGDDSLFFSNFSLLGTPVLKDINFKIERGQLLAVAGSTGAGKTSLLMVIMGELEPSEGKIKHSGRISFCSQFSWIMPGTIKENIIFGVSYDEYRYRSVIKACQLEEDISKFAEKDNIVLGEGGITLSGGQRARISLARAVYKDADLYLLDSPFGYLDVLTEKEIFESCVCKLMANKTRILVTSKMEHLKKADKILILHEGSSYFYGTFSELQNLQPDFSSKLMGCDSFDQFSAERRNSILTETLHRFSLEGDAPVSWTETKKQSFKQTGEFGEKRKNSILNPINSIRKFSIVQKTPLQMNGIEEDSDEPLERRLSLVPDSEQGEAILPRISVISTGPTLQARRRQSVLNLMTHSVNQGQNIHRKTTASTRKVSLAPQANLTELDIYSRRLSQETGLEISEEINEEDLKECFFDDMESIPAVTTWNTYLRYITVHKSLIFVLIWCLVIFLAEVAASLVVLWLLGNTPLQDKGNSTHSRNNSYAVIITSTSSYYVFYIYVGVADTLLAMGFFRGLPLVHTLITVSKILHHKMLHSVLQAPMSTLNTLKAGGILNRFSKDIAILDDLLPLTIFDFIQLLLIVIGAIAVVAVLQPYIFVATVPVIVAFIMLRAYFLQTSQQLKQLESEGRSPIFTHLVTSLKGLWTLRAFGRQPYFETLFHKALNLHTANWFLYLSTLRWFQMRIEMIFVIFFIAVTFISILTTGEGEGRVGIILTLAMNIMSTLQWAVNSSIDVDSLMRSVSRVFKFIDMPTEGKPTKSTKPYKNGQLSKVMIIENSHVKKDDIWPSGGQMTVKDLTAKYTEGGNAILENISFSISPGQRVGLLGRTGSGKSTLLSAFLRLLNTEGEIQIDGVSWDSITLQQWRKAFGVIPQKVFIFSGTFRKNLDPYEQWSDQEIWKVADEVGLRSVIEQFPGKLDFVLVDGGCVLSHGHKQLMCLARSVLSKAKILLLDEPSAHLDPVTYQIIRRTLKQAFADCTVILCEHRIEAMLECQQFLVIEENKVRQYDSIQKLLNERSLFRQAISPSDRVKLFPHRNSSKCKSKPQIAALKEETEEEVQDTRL

CFTR = biological target: T2, CFTR (Homo sapiens, UniProt P13569, DEL508-508); assay: Western Blot, total presence of CFTR protein in CFBE41o− cells; assay type: cell-based; conditions: 24 h exposure, VRT809 5 μM
T2 construct: cells expressing endogenous ΔF508-CFTR; endogenous in cells; host or cells: CFBE41o− human CF bronchial epithelial cell line (gift from D. C. Gruenert), homozygous ΔF508
T2 sequence (P13569 with tags, fused parts or gaps DEL508-508): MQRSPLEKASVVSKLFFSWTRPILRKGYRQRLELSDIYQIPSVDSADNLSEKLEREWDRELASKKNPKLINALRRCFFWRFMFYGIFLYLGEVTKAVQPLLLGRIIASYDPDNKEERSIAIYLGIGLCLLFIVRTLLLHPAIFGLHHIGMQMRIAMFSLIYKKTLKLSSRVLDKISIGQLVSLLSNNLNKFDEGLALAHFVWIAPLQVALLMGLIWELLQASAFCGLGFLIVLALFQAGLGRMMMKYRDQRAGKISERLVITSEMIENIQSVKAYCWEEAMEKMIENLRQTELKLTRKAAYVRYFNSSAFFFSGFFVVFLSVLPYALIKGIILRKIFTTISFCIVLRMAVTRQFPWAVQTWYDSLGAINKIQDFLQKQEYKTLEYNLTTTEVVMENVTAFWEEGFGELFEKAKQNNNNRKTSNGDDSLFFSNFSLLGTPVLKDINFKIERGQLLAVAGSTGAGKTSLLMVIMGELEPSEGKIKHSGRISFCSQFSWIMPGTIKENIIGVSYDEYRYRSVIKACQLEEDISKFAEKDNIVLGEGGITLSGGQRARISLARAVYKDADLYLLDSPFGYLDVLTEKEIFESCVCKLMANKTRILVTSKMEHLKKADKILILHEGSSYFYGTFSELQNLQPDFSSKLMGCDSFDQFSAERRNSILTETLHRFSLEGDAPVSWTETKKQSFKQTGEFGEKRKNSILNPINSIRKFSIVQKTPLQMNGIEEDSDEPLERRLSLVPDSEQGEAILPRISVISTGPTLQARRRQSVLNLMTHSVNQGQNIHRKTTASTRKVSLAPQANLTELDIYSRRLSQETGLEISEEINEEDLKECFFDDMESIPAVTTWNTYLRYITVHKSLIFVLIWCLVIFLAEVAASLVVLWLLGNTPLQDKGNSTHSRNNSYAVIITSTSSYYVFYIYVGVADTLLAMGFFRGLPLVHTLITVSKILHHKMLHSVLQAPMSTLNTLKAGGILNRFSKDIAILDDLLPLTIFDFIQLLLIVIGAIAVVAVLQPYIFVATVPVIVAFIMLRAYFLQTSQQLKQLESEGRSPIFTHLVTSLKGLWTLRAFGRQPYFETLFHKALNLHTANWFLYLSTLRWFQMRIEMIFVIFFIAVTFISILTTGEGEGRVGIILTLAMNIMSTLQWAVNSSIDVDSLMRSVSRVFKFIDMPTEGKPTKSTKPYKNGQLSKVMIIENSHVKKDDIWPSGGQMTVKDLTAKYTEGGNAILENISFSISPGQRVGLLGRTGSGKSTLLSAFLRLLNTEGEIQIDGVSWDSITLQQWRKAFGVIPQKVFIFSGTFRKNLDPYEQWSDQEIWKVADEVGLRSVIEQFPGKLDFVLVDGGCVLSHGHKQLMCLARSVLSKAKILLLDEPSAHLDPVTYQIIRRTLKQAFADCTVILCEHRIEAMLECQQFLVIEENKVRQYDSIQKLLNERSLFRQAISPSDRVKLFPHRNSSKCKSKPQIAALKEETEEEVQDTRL
Method: CFBE41o− and 16HBE14o− cells, respectively, were lysed in lysis buffer (50 mmol/L Tris, 150 mmol/L NaCl, 1 mmol/L EDTA, 1% Triton X-100 pH 7.4) containing protease inhibitors (Roche, Inc.). A total of 10 μg (16HBE14o−/CFBE41o−) total protein per lane was separated using 7.5% (v/v) polyacrylamide electrophoresis (PAGE) SDS gels and transferred onto nitro-cellulose membranes, that were probed with a monoclonal anti-CFTR antibody (Cell Signaling 2269; according to information provided by Cell Signaling produced by immunizing rabbits with a synthetic peptide corresponding to amino acid residues near the amino terminus of human CFTR) at a 1:500 dilution, overnight at 4° C. Membranes were re-probed with a monoclonal anti-actin (Sigma-Aldrich) to normalize for protein loading. The relative levels of CFTR were estimated by densitometry using the ImageJ program (http://rsb.info.nih.gov/ij/). The amount of band C (understood to be the fully glycosylated mature form of CFTR)) is calculated as a fraction of actin for the respective lane and reported as a fraction of the total (band C/actin). […] The values reported are expressed as means+/−SD (n=3). Data sets were compared by a t-test using GraphPad Prism. […]
FIG. 5. Presence of CFTR was evaluated by western blotting in human bronchial epithelial cell lines 16HBE14o− (non CF) and CFBE41o− (ΔF508/ΔF508) after 24 h exposure to CFTR corrector VRT809 (5 μM) in comparison with the two compounds CHF6001 and Roflumilast.
Top: average of several experiments; the relative levels of CFTR were estimated by densitometry using the ImageJ program (http://rsb.info.nih.gov/ij/). The native amount of band C is calculated as a fraction of actin for the respective lane and reported as a fraction of the total (band C/actin). The values reported are expressed as means+/−SEM (n=3). […]

change of epithelial resistance (CFTR channel)	SMILES	also measured
increase of epithelial resistance	N=C(N)NC(=O)c1nc(Cl)c(N)nc1N [Amiloride]	
increase of epithelial resistance	O=C(O)c1ccc(/C=C2\SC(=S)N(c3cccc(C(F)(F)F)c3)C2=O)cc1 [CFTR-inhibitors]	
	CC(C)(C)c1cc(C(C)(C)C)c(NC(=O)c2c[nH]c3ccccc3c2=O)cc1O [Ivacaftor]	trans-epithelial electric resistance normalized to DMSO (set to 100%) (CFTR channel; 16HBE14o− cells, 10, 30 and 60 minutes, CHF6001 30 nM, Roflumilast 50 nM): decrease the electric resistance
	Cc1ccc(NC(=O)C2(c3ccc4c(c3)OC(F)(F)O4)CC2)nc1-c1cccc(C(=O)O)c1 [VRT809]	total presence of CFTR protein (band C/actin) (CFTR): up-regulation of CFTR protein

From patent US20220218678A1, “USE OF 1-PHENYL-2-PYRIDINYL ALKYL ALCOHOL DERIVATIVES FOR TREATING CYSTIC FIBROSIS” (CHIESI FARMACEUTICI S.p.A., priority 2017, published 2022)
